Data: patent EP4650353A1 (Shanghai Institute of Materia Medica, Chinese Academy of …, priority 2023, dated 2024)

What follows are compounds tested against T1, human GLP-1 receptor (Homo sapiens, UniProt P43220) (assay: GLP-1 receptor-mediated agonist activity: cAMP level in hGLP-1R/HEK293 cell line (HTRF)). Details: cAMP levels in hGLP-1R/HEK293 cell line; Table 1; read-out: determined EC50.
T1 construct: HA (N); expressed in transfected cells
Type: cell-based
Protocol: The hGLP-1R/HEK293 cells were digested, centrifuged and resuspended in culture medium (DMEM+0.2% BSA, m/v), and the cell density was adjusted to 2×10^5 cells/mL. IBMX (3-isobutyl-1-methylxanthine, final concentration of 0.5 mM) was added to the cell suspension and added to a 384-well plate at 5 µL (1×10^3 cells)/well. The compound was dissolved in DMSO to prepare a stock solution with a concentration of 10 mM. The experiment started with a concentration of 100 µM which was diluted 10 times in a series of 7 dilution points, with the 8th point being DMSO. 2 µL of the test compound of different concentrations was added to 98 µL of culture medium, shaken and mixed, 5 µL was taken and added to a 384-well plate (final concentration of the test compound was 0-100 nM, final concentration of DMSO was 1%, v/v), which was then incubated in the incubator (37°C, 5% CO2) in the dark for 30 min, then 10 µL of cAMP detection reagent (LANCE Ultra cAMP Detecion Kit, PerkinElmer, #TRF0264) was added, mixed well, and reacted at room temperature in the dark for 1 h. After the reaction was completed, the HTRF signal was read using the Envision 2104 multi-function microplate reader. All samples were tested in triplicate wells, and the ratio of the acceptor-donor excitation signal in each single well was calculated using the formula Ratio = Signal 665nM/Signal 620nM. The HTRF signal ratio and the corresponding compound concentration were analyzed and processed using GraphPad Prism 8 software, and the EC50 value of the compound was obtained by fitting the S-type dose-response curve and calculating.

T1 sequence (P43220 24-463): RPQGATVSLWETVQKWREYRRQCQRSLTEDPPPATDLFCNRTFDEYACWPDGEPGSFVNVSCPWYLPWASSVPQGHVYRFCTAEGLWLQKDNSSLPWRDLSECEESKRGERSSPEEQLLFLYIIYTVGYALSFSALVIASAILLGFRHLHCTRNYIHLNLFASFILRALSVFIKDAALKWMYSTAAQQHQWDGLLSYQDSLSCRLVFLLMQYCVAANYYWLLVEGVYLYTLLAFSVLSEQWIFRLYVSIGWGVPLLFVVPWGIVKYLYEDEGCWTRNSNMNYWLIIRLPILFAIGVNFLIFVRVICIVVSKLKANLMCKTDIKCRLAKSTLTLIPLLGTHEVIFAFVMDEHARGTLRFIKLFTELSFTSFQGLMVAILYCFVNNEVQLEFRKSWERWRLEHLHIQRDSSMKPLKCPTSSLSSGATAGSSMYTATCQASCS

Structure (SMILES)	EC50 [nM]
CCOc1cc(C(=O)O)cc2c1nc(CN1CCN(c3cccc4c3OC(C)(c3ccc(C(F)(F)F)cn3)O4)C=N1)n2C[C@@H]1CCO1 (stereo partly drawn) [Compound 66, 4-ethoxy-2-((4-(2-methyl-2-(5-(trifluoromethyl)pyridin-2-yl)benzo[d][1,3]dioxol-4-yl)-5,6-dihydro-1,2,4-triazin-1(4H)-yl)methyl)-1-(((S)-oxetan-2-yl)methyl)-1H-benzo[d]imidazole-6-carboxylic acid]	0.0052
CCOc1cc(C(=O)O)cc2c1nc(CN1CCN(c3cccc4c3OC(C)(c3ccc(Cl)cc3F)O4)C=N1)n2C[C@@H]1CCO1 (stereo partly drawn) [Compound 68, 2-((4-(2-(4-chloro-2-fluorophenyl)-2-methylbenzo[d][1,3]dioxol-4-yl)-5,6-dihydro-1,2,4-triazin-1(4H)-yl)methyl)-4-ethoxy-1-(((S)-oxetan-2-yl)methyl)-1H-benzo[d]imidazole-6-carboxylic acid]	0.0064
CCOc1cc(C(=O)O)cc2c1nc(CN1CCN(c3cccc4c3OC(C)(c3ccc(Cl)cn3)O4)C=N1)n2C[C@@H]1CCO1 (stereo partly drawn) [Compound 69, 2-((4-(2-(5-chloropyridin-2-yl)-2-methylbenzo[d][1,3]dioxol-4-yl)-5,6-dihydro-1,2,4-triazin-1(4H)-yl)methyl)-4-ethoxy-1-(((S)-oxetan-2-yl)methyl)-1H-benzo[d]imidazole-6-carboxylic acid]	0.0111
[2H]C([2H])([2H])Oc1cc(C(=O)O)cc2c1nc(CN1CCN(c3cccc4c3OC(C)(c3ccc(Cl)cn3)O4)C=N1)n2C[C@@H]1CCO1 (stereo partly drawn) [Compound 70, 2-((4-(2-(5-chloropyridin-2-yl)-2-methylbenzo[d][1,3]dioxol-4-yl)-5,6-dihydro-1,2,4-triazin-1(4H)-yl)methyl)-4-(methoxy-d3)-1-(((S)-oxetan-2-yl)methyl)-1H-benzo[d]imidazole-6-carboxylic acid]	0.0273
[2H]C([2H])([2H])Oc1cc(C(=O)O)cc2c1nc(CN1CCN(c3cccc4c3OC(C)(c3ccc(Cl)cc3F)O4)C=N1)n2C[C@@H]1CCO1 (stereo partly drawn) [Compound 71, 2-((4-(2-(4-chloro-2-fluorophenyl)-2-methylbenzo[d][1,3]dioxol-4-yl)-5,6-dihydro-1,2,4-triazin-1(4H)-yl)methyl)-4-(methoxy-d3)-1-(((S)-oxetan-2-yl)methyl)-1H-benzo[d]imidazole-6-carboxylic acid]	0.0175
[2H]C([2H])([2H])C([2H])([2H])Oc1cc(C(=O)O)cc2c1nc(CN1CCC(c3cccc4c3OC(C)(c3ccc(Cl)cn3)O4)CC1)n2C[C@@H]1CCO1 (stereo partly drawn) [Compound 72, 2-((4-(2-(5-chloropyridin-2-yl)-2-methylbenzo[d][1,3]dioxol-4-yl)piperidin-1-yl)methyl)-4-(ethoxy-d5)-1-(((S)-oxetan-2-yl)methyl)-1H-benzo[d]imidazole-6-carboxylic acid]	0.01
[2H]C([2H])([2H])Oc1cc(C(=O)O)cc2c1nc(CN1CCC(c3cccc4c3OC(C)(c3ccc(Cl)cc3F)O4)CC1)n2C[C@@H]1CCO1 (stereo partly drawn) [Compound 74, 2-((4-(2-(4-chloro-2-fluorophenyl)-2-methylbenzo[d][1,3]dioxol-4-yl)piperidin-1-yl)methyl)-4-(methoxy-d3)-1-(((S)-oxetan-2-yl)methyl)-1H-benzo[d]imidazole-6-carboxylic acid]	0.0065
[2H]C([2H])([2H])C([2H])([2H])Oc1cc(C(=O)O)cc2c1nc(CN1CCC(c3cccc4c3OC(C)(c3ccc(Cl)cc3F)O4)CC1)n2C[C@@H]1CCO1 (stereo partly drawn) [Compound 75, 2-((4-(2-(4-chloro-2-fluorophenyl)-2-methylbenzo[d][1,3]dioxol-4-yl)piperidin-1-yl)methyl)-4-(ethoxy-d5)-1-(((S)-oxetan-2-yl)methyl)-1H-benzo[d]imidazole-6-carboxylic acid]	0.003
[2H]C([2H])([2H])C([2H])([2H])Oc1cc(C(=O)O)cc2c1nc(CN1CCN(c3cccc4c3O[C@](C)(c3ccc(Cl)cc3F)O4)C=N1)n2C[C@@H]1CCO1 [Compound 76-2, 2-((4-((R)-2-(4-chloro-2-fluorophenyl)-2-methylbenzo[d][1,3]dioxol-4-yl)-5,6-dihydro-1,2,4-triazin-1(4H)-yl)methyl)-4-(ethoxy-d5)-1-(((S)-oxetan-2-yl)methyl)-1H-benzo[d]imidazole-6-carboxylic acid]	0.604
[2H]C([2H])([2H])C([2H])([2H])Oc1cc(C(=O)O)cc2c1nc(CN1CCN(c3cccc4c3OC(C)(c3ccc(Cl)c(F)c3F)O4)C=N1)n2C[C@@H]1CCO1 (stereo partly drawn) [Compound 77, 2-((4-(2-(4-chloro-2,3-difluorophenyl)-2-methylbenzo[d][1,3]dioxol-4-yl)-5,6-dihydro-1,2,4-triazin-1(4H)-yl)methyl)-4-(ethoxy-d5)-1-(((S)-oxetan-2-yl)methyl)-1H-benzo[d]imidazole-6-carboxylic acid]	0.0165
CCOc1cc(C(=O)O)cc2c1nc(CN1CCN(c3cccc4c3OC(C)(c3ccc(Cl)c(F)c3F)O4)C=N1)n2C[C@@H]1CCO1 (stereo partly drawn) [Compound 78, 2-((4-(2-(4-chloro-2,3-difluorophenyl)-2-methylbenzo[d][1,3]dioxol-4-yl)-5,6-dihydro-1,2,4-triazin-1(4H)-yl)methyl)-4-ethoxy-1-(((S)-oxetan-2-yl)methyl)-1H-benzo[d]imidazole-6-carboxylic acid]	0.0115
CCOc1cc(C(=O)O)cc2c1nc(CN1CCN(c3cccc4c3OC(C)(c3cc(F)c(Cl)cc3F)O4)C=N1)n2C[C@@H]1CCO1 (stereo partly drawn) [Compound 79, 2-((4-(2-(4-chloro-2,5-difluorophenyl)-2-methylbenzo[d][1,3]dioxol-4-yl)-5,6-dihydro-1,2,4-triazin-1(4H)-yl)methyl)-4-ethoxy-1-(((S)-oxetan-2-yl)methyl)-1H-benzo[d]imidazole-6-carboxylic acid]	0.0442
[2H]C([2H])([2H])C([2H])([2H])Oc1cc(C(=O)O)cc2c1nc(CN1CCN(c3cccc4c3OC(C)(c3cc(F)c(Cl)cc3F)O4)C=N1)n2C[C@@H]1CCO1 (stereo partly drawn) [Compound 80, 2-((4-(2-(4-chloro-2,5-difluorophenyl)-2-methylbenzo[d][1,3]dioxol-4-yl)-5,6-dihydro-1,2,4-triazin-1(4H)-yl)methyl)-4-(ethoxy-d5)-1-(((S)-oxetan-2-yl)methyl)-1H-benzo[d]imidazole-6-carboxylic acid]	0.0438
COc1cc(Cl)ccc1C1(C)Oc2cccc(N3C=NN(Cc4nc5c(OC)cc(C(=O)O)cc5n4C[C@@H]4CCO4)CC3)c2O1 (stereo partly drawn) [Compound 83, 2-((4-(2-(4-chloro-2-methoxyphenyl)-2-methylbenzo[d][1,3]dioxol-4-yl)-5,6-dihydro-1,2,4-triazin-1(4H)-yl)methyl)-4-methoxy-1-(((S)-oxetan-2-yl)methyl)-1H-benzo[d]imidazole-6-carboxylic acid]	0.0092
[2H]C([2H])([2H])Oc1cc(C(=O)O)cc2c1nc(CN1CCN(c3cccc4c3OC(C)(c3ccc(Cl)cc3OC)O4)C=N1)n2C[C@@H]1CCO1 (stereo partly drawn) [Compound 84, 2-((4-(2-(4-chloro-2-methoxyphenyl)-2-methylbenzo[d][1,3]dioxol-4-yl)-5,6-dihydro-1,2,4-triazin-1(4H)-yl)methyl)-4-(methoxy-d3)-1-(((S)-oxetan-2-yl)methyl)-1H-benzo[d]imidazole-6-carboxylic acid]	0.0098
CCOc1cc(C(=O)O)cc2c1nc(CN1CCN(c3cccc4c3OC(C)(c3ccc(Cl)cc3OC)O4)C=N1)n2C[C@@H]1CCO1 (stereo partly drawn) [Compound 85, 2-((4-(2-(4-chloro-2-methoxyphenyl)-2-methylbenzo[d][1,3]dioxol-4-yl)-5,6-dihydro-1,2,4-triazin-1(4H)-yl)methyl)-4-ethoxy-1-(((S)-oxetan-2-yl)methyl)-1H-benzo[d]imidazole-6-carboxylic acid]	0.005
CCOc1cc(C(=O)O)cc2c1nc(CN1CCN(c3cccc4c3OC(C)(c3ccc(F)cc3F)O4)C=N1)n2C[C@@H]1CCO1 (stereo partly drawn) [Compound 86, 2-((4-(2-(2,4-difluorophenyl)-2-methylbenzo[d][1,3]dioxol-4-yl)-5,6-dihydro-1,2,4-triazin-1(4H)-yl)methyl)-4-ethoxy-1-(((S)-oxetan-2-yl)methyl)-1H-benzo[d]imidazole-6-carboxylic acid]	0.0289
[2H]C([2H])([2H])C([2H])([2H])Oc1cc(C(=O)O)cc2c1nc(CN1CCN(c3cccc4c3OC(C)(c3ccc(F)cc3F)O4)C=N1)n2C[C@@H]1CCO1 (stereo partly drawn) [Compound 87, 2-((4-(2-(2,4-difluorophenyl)-2-methylbenzo[d][1,3]dioxol-4-yl)-5,6-dihydro-1,2,4-triazin-1(4H)-yl)methyl)-4-(ethoxy-d5)-1-(((S)-oxetan-2-yl)methyl)-1H-benzo[d]imidazole-6-carboxylic acid]	0.0212
COc1cc(C(F)(F)F)ccc1C1(C)Oc2cccc(N3C=NN(Cc4nc5c(OC)cc(C(=O)O)cc5n4C[C@@H]4CCO4)CC3)c2O1 (stereo partly drawn) [Compound 88, 4-methoxy-2-((4-(2-(2-methoxy-4-(trifluoromethyl)phenyl)-2-methylbenzo[d][1,3]dioxol-4-yl)-5,6-dihydro-1,2,4-triazin-1(4H)-yl)methyl)-1-(((S)-oxetan-2-yl)methyl)-1H-benzo[d]imidazole-6-carboxylic acid]	0.0087
[2H]C([2H])([2H])Oc1cc(C(=O)O)cc2c1nc(CN1CCN(c3cccc4c3OC(C)(c3ccc(C(F)(F)F)cc3OC)O4)C=N1)n2C[C@@H]1CCO1 (stereo partly drawn) [Compound 89, 4-(Methoxy-d3)-2-((4-(2-(2-methoxy-4-(trifluoromethyl)phenyl)-2-methylbenzo[d][1,3]dioxol-4-yl)-5,6-dihydro-1,2,4-triazin-1(4H)-yl)methyl)-1-(((S)-oxetan-2-yl)methyl)-1H-benzo[d]imidazole-6-carboxylic acid]	0.0075
CCOc1cc(C(=O)O)cc2c1nc(CN1CCN(c3cccc4c3OC(C)(c3ccc(C(F)(F)F)cc3OC)O4)C=N1)n2C[C@@H]1CCO1 (stereo partly drawn) [Compound 90, 4-ethoxy-2-((4-(2-(2-methoxy-4-(trifluoromethyl)phenyl)-2-methylbenzo[d][1,3]dioxol-4-yl)-5,6-dihydro-1,2,4-triazin-1(4H)-yl)methyl)-1-(((S)-oxetan-2-yl)methyl)-1H-benzo[d]imidazole-6-carboxylic acid]	0.0061
